Experimental data: PMC7175277, “Hydroxylamine Analogue of Agmatine: Magic Bullet for Arginine Decarboxylase” (Biomolecules, 2020)

How the values were obtained:
[1] = tested on: Acremonium chrysogenum wild-type (WT) ATCC 11550; assay: Fungal growth inhibition (drop-dilution, CD agar), WT strain; type: cell-based; conditions: for inhibition at 5000 µM: Hapsidospora chrysogena, ATCC11550, 336 h, 14 days after inoculation on CD medium
Description: (§1) Two strains of Acremonium chrysogenum were used in this study: the wild-type (Brotzu) isolate ATCC 11550 (WT) and high-cephalosporin-yielding RNCM F-4081D (HY), derived from the WT [37]. The cultivation conditions were the same as previously described. The filamentous fungi were cultivated on agarized Czapek-Dox (CD) medium (30 g/L sucrose, 2 g/L NaNO3, 1 g/L K2HPO4, 0.5 g/L MgSO4×7 H2O, 0.5 g/L KCl, 0.01 g/L FeSO4×7 H2O, 20 g/L agar, pH 7.0–7.4). To determine the toxic effect of AO-Agm, APA, DFMA and DFMO on the growth of fungal cells the drop-dilution method was used with some modifications as described earlier. Cells were collected from agar slants and diluted with 0.9% NaCl solution up to OD600 = 0.5 (basic concentration), followed by serial tenfold dilutions with the same solution. […] The inoculated Petri dishes were incubated for 21 days at 26 °C. The inhibitory effects of the compounds were measured every three days after inoculation and evaluated by measuring the ratio of colony growth on agarized CD medium supplemented with AO-Agm, APA, DFMA, or DFMO to the growth in the control (agarized CD medium without any additions). The formula: growth inhibition % = [(Dc − Dt)/Dc] × 100, where Dc indicates the colony diameter in control set, and Dt indicates the colony diameter in the treatment set that was used to determine the percent of fungal growth inhibition. The data recorded were measured in triplicate and repeated at least twice.

[2] = tested on: Acremonium chrysogenum high-cephalosporin-yielding (HY) RNCM F-4081D; assay: Fungal growth inhibition (drop-dilution, CD agar), HY strain; type: cell-based; conditions: for inhibition at 5000 µM: Hapsidospora chrysogena, 336 h, read-out: Growth inhibition
Description: as §1

[3] = target: T1, E. coli ADC (Escherichia coli, UniProt P21170); assay: E. coli ADC activity assay (HPLC of agmatine); type: biochemical; conditions: 0.1 mM PLP; 15 min preincubation; 0.15 mM L-Arg
T1 construct: The kinetic parameters determined for the partially purified biosynthetic ADC from E. coli; endogenous in cells; host or cells: E. coli DH5α (39-53% ammonium sulphate fraction of the lysate, desalted)
T1 sequence (P21170 1-658): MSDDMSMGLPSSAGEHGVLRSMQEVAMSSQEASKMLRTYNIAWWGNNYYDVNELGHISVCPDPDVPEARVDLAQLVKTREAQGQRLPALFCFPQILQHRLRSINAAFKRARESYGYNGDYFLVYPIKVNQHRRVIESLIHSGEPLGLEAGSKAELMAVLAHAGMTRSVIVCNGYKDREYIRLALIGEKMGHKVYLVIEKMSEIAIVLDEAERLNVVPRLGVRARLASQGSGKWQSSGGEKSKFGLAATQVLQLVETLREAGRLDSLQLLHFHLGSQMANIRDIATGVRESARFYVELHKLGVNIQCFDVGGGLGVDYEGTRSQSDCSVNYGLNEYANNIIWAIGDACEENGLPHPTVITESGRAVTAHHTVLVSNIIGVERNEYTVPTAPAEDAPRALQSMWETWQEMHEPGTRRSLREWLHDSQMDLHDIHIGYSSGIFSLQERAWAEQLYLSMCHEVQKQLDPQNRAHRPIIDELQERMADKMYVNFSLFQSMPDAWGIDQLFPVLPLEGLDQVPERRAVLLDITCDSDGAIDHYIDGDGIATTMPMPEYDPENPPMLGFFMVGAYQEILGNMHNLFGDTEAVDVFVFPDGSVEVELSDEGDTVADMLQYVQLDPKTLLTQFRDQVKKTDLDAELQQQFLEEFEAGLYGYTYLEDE
Protocol: (§2) The purification was performed using a modified procedure of earlier publication. E. coli strain DH5α was grown in Luria-Bertani broth at +37 °C with shaking (200 rpm) overnight. The cells were collected by centrifugation and the pellet was homogenized with Potter-Elvehjem in 10 volumes (w/v) of ice-cold 50 mM Tris-HCl pH 7.4, 1 mM DTT. The cell debris was removed by centrifugation at 12,000 g for 30 min at +4 °C. Solid (NH4)2SO4 was added to the supernatant, and the pellet precipitating between 39% and 53% saturation was separated. The precipitate was resuspended in ice-cold buffer containing 50 mM Tris-HCl pH 7.4 and 1 mM DTT and desalted by passage through Sephadex G-25 column (NAP-10 column, GE Healthcare). The protein concentration was measured with Bio-Rad protein reagent, and the partially purified enzyme preparation was mixed with 20% glycerol and aliquoted for storage at −80 °C.
[…] The ODC reaction mixture contained 50 mM Tris-HCl pH 7.8, 1 mM EDTA, 2.4 mM DTT, 0.1 mM PLP and 20 μg of partially purified enzyme preparation. The mixtures were either preincubated or not preincubated for 15 min at +40 °C in the presence of the inhibitor, after which the reaction was started by the addition of 18 μL of 10× substrate (L-Arg for ADC and L-Orn for ODC). After incubation for 30 min (ADC) or 20 min (ODC) at +40 °C, 20 μL of 50% sulphosalicylic acid containing 50 μM diaminoheptane (internal standard) was added and the samples were analyzed for the content of agmatine (ADC) and Put (ODC) with HPLC as described previously. The kinetic parameters and IC50 values were determined with the aid of GraphPad Prism version 5.03 using nonlinear regression analysis.

[4] = tested on: A. chrysogenum WT strain; assay: Polyamine content in the fungi, WT strain; type: cell-based, Acremonium chrysogenum; conditions: 24 h
Protocol: (§3) WT and HY A. chrysogenum strains were preliminarily grown in tubes on CD medium slants for 7 days at 25 °C and used for the inoculation of 30 mL of a liquid CD medium (seed medium). The strains were cultivated on CD medium for 48 h at 26 °C and inoculated into ten volumes of CD medium. The fermentation was carried out for 120 h at 26 °C in 250-mL Erlenmeyer flasks on a CERTOMAT BS-1 shaker (Sartorius, Germany) at 230 rpm, as described earlier. After 24 h of culture, 1 mL aliquots were removed, fungi were separated by centrifugation (15 min, 14,000 g) and washed with H2O (3 × 2 mL). The washed biomass was subjected to three cycles of freezing (−80 °C) and thawing at 20 °C in 5% perchloric acid. After the final thaw, samples were vortexed for 2 min and centrifuged for 10 min at 14,000 g. The supernatant was used for the determination of polyamine content.
(§4) The dry biomass was prepared from 2 mL aliquots of fermentation media after 24 h. The biomass was separated by centrifugation (15 min, 14,000 g), the precipitated fungi cells were washed in triplicate with 10 volumes of H2O, dried at 80 °C for 96 h to a constant weight and used for normalization of polyamine content in the fungi.
(§5) Polyamines were determined by HPLC from 50 µL of the 5% perchloric acid supernatant using a precolumn modification with Dans-Cl following mostly the published protocol. 1,7-Diaminoheptane was used as an internal standard and proline applied to quench the dansylation reaction. The solution of the dansylated polyamines in toluene (2 μL) was mixed with 50% aq. ethanol (13 µL) and applied on a reversed phase column (Cosmosil C18-MS-II, 250 × 4.6 mm, 5 µm). The column was eluted (1 mL/min) with the gradient: 0 min—0% B; 4 min—65% B; 17 min—65% B; 19 min—100% B, 23 min—100% B, 25 min—0% B; 30 min—0% B. System A—40% acetonitrile, 60% H2O. System B—80% acetonitrile, 20% tetrahydrofuran. Column temperature 40 °C, pressure 80–120 bar, fluorescent detection: λex 340 nm, λem 530 nm (detector RF-20A, Shimadzu Scientific Instrument, Columbia, MD, USA).

[5] = tested on: A. chrysogenum HY strain; assay: Polyamine content in the fungi, HY strain; type: cell-based, Acremonium chrysogenum; conditions: 24 h
Protocol: as §3, §4, §5

[6] = target: E. coli ODC (Escherichia coli, UniProt P21169); assay: E. coli ODC activity assay (HPLC of Put); type: biochemical
Chain of E. coli ODC (P21169 whole entry): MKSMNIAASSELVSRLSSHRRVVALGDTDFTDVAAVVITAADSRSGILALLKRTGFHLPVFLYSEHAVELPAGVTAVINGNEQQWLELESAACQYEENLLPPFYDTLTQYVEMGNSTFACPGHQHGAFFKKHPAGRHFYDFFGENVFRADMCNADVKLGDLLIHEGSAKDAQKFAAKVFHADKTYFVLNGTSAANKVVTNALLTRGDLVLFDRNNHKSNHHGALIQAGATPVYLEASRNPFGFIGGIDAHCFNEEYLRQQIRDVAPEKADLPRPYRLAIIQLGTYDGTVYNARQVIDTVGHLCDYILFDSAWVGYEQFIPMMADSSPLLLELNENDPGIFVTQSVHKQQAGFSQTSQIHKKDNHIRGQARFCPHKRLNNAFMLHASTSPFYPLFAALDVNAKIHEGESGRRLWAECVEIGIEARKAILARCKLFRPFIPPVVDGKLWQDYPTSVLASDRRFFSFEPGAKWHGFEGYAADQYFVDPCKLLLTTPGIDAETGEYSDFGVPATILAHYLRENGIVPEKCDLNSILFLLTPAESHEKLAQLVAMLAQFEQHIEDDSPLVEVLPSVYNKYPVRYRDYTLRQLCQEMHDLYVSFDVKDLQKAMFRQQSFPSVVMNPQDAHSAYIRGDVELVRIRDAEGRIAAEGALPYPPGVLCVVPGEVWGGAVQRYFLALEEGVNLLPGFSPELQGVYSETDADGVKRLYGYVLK
Protocol: as §2
The ADC reaction mixture contained 50 mM Tris-HCl pH 7.8, 4 mM MgCl2, 1 mM DTT, 1.0 or 0.1 mM PLP and 20 μg of partially purified enzyme preparation in a total volume of 162 μL. The ODC reaction mixture contained 50 mM Tris-HCl pH 7.8, 1 mM EDTA, 2.4 mM DTT, 0.1 mM PLP and 20 μg of partially purified enzyme preparation. […] After incubation for 30 min (ADC) or 20 min (ODC) at +40 °C, 20 μL of 50% sulphosalicylic acid containing 50 μM diaminoheptane (internal standard) was added and the samples were analyzed for the content of agmatine (ADC) and Put (ODC) with HPLC as described previously. The kinetic parameters and IC50 values were determined with the aid of GraphPad Prism version 5.03 using nonlinear regression analysis.

[7] = tested on: DU145 prostate cancer cells; assay: Intracellular polyamine pools of DU145 cells; type: cell-based; conditions: SC (1 mM) alone; 3 days
Protocol: (§6) DU145 prostate cancer cells were cultured in high-glucose Dulbecco’s Modified Eagle’s Medium supplemented with 10% heat-inactivated fetal bovine serum, 2 mM L-glutamine and 50 μg/mL gentamycin (all from Sigma-Aldrich). The cells were plated on 6-well plates and allowed to attach overnight. […] The cells were harvested, and the pellet was mixed with 150 μL of 5% sulphosalicylic acid containing 5 μM diaminoheptane (internal standard). Polyamine analysis was carried out as described previously.

[8] = tested on: DU145 prostate cancer cells; assay: Growth of DU145 cells; type: cell-based; conditions: SC (1 mM) alone; 3 days
Protocol: as §6

[9] = substrate: N=C(N)NCCC[C@H](N)C(=O)O; assay: E. coli ADC activity assay (HPLC of agmatine); type: biochemical; conditions: other: partially purified ADC, pH 7.8
Protocol: as §2
[…] After incubation for 30 min (ADC) or 20 min (ODC) at +40 °C, 20 μL of 50% sulphosalicylic acid containing 50 μM diaminoheptane (internal standard) was added and the samples were analyzed for the content of agmatine (ADC) and Put (ODC) with HPLC as described previously. The kinetic parameters and IC50 values were determined with the aid of GraphPad Prism version 5.03 using nonlinear regression analysis.

N=C(N)NCCCC(N)(C(=O)O)C(F)F (racemic) [DFMA, D,L-α-(difluoromethyl)arginine]
inhibition at 5000 µM ([1]; 5 mM inhibitor): 7%
inhibition at 5000 µM [2]: 13%
IC50 [3]: 10 ± 1 µM

NCCCCNCCCN [Spd, spermidine]
Put ([4]; 0.5 mM Spd): <10 pmol/mg Dry Weight
Spd ([4]; 0.5 mM Spd): 12,200 ± 2180 pmol/mg Dry Weight
Spm ([4]; 0.5 mM Spd): 70 ± 10 pmol/mg Dry Weight
Put ([5]; 0.5 mM Spd): <10 pmol/mg Dry Weight
Spd ([5]; 0.5 mM Spd): 39,180 ± 4840 pmol/mg Dry Weight
Spm ([5]; 0.5 mM Spd): 330 ± 10 pmol/mg Dry Weight

NCCC[C@](N)(C(=O)O)C(F)F [DFMO, α-(Difluoromethyl)ornithine]
Put ([4]; 5 mM DFMO + 0.5 mM Spd): <10 pmol/mg Dry Weight
Spd ([4]; 5 mM DFMO + 0.5 mM Spd): 11,530 ± 3690 pmol/mg Dry Weight
Spm ([4]; 5 mM DFMO + 0.5 mM Spd): 90 ± 30 pmol/mg Dry Weight
Put ([4]; 5 mM DFMO): <10 pmol/mg Dry Weight
Spd ([4]; 5 mM DFMO): 140 ± 10 pmol/mg Dry Weight
Spm ([4]; 5 mM DFMO): 170 ± 20 pmol/mg Dry Weight
Growth inhibition compared with 1 mM APA ([1]; 1 mM inhibitor): significantly less effective
Growth of WT strain ([1]; 5 mM inhibitor): completely inhibited
Effect of 0.5 mM Spd on the growth arrest caused by the inhibitor ([1]; 5 mM inhibitor + 0.5 mM Spd): reversed the growth arrest
inhibition at 5000 µM ([1]; 5 mM inhibitor): 100%
Growth inhibition compared with 5 mM ([2]; HY strain, 1 mM inhibitor): much less effective
inhibition at 5000 µM [2]: 41%
Potency to inhibit E. coli ODC ([6]; 0.1 mM PLP, 15 min preincubation, 7 mM L-Orn): very low potency
Put ([5]; 5 mM DFMO + 0.5 mM Spd): <10 pmol/mg Dry Weight
Spd ([5]; 5 mM DFMO + 0.5 mM Spd): 46,630 ± 6700 pmol/mg Dry Weight
Spm ([5]; 5 mM DFMO + 0.5 mM Spd): 340 ± 56 pmol/mg Dry Weight
Put ([5]; 5 mM DFMO): <10 pmol/mg Dry Weight
Spd ([5]; 5 mM DFMO): 410 ± 60 pmol/mg Dry Weight
Spm ([5]; 5 mM DFMO): 424 ± 39 pmol/mg Dry Weight

NNC(N)=O [SC, semicarbazide, reference compound]
Put [7]: 1258 ± 157 pmol/mg Protein
Spd [7]: 6483 ± 282 pmol/mg Protein
Spm [7]: 3582 ± 146 pmol/mg Protein
Growth [8]: 1.00 ± 0.04 Fold

NCCC[C@H](N)C(=O)O [L-Orn, L-ornithine]
Vmax ([6]; partially purified ODC): 709 ± 7 nmol/h/mg protein

B1: E. coli ADC (Escherichia coli K-12) (protein)
chain: MSDDMSMGLPSSAGEHGVLRSMQEVAMSSQEASKMLRTYNIAWWGNNYYDVNELGHISVCPDPDVPEARVDLAQLVKTREAQGQRLPALFCFPQILQHRLRSINAAFKRARESYGYNGDYFLVYPIKVNQHRRVIESLIHSGEPLGLEAGSKAELMAVLAHAGMTRSVIVCNGYKDREYIRLALIGEKMGHKVYLVIEKMSEIAIVLDEAERLNVVPRLGVRARLASQGSGKWQSSGGEKSKFGLAATQVLQLVETLREAGRLDSLQLLHFHLGSQMANIRDIATGVRESARFYVELHKLGVNIQCFDVGGGLGVDYEGTRSQSDCSVNYGLNEYANNIIWAIGDACEENGLPHPTVITESGRAVTAHHTVLVSNIIGVERNEYTVPTAPAEDAPRALQSMWETWQEMHEPGTRRSLREWLHDSQMDLHDIHIGYSSGIFSLQERAWAEQLYLSMCHEVQKQLDPQNRAHRPIIDELQERMADKMYVNFSLFQSMPDAWGIDQLFPVLPLEGLDQVPERRAVLLDITCDSDGAIDHYIDGDGIATTMPMPEYDPENPPMLGFFMVGAYQEILGNMHNLFGDTEAVDVFVFPDGSVEVELSDEGDTVADMLQYVQLDPKTLLTQFRDQVKKTDLDAELQQQFLEEFEAGLYGYTYLEDE
notes: The kinetic parameters determined for the partially purified biosynthetic ADC from E. coli; endogenous in cells; host or cells: E. coli DH5α (39-53% ammonium sulphate fraction of the lysate, desalted)
Km [9]: 158 ± 5 µM
Vmax [9]: 546 ± 5 nmol/h/mg protein
